Assay results taken from patent US20240239806A1, “COMPOUNDS, COMPOSITIONS AND METHODS OF TREATING DISORDERS” (Chengdu Anticancer Bioscience, Ltd., priority 2021, published 2024).
Entries after “also recorded” stand apart in the source; their conditions may differ.

Tests used:
HCT116 = assay: MTT assay of cellular proliferation; format: cell-based; settings: Homo sapiens, HCT-116, 50% inhibition of cellular proliferation
How it was run: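 Cells grew in DMEM with 5% FBS, 2 mM L-glutamine and 1 mM pyruvate at 37 °C, 5% CO2, were seeded to 20-30% confluence over 15-24 h, then exposed to compound at 1 nM to 30 μM. MTT was added for 3-4 h; solubilized formazan was read at 570 nm and EC50 taken as 50% inhibition of proliferation.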

[1] = tested on: human lung cancer cell line NCI-H23; assay: Colony formation assay of long-term effect; format: cell-based; settings: exposed for three days, drug-free medium until 12 days; compared with AZD1152
Excerpt: Acute cytotoxicity immediately determined after short-term exposure to antimitotic agents often underestimates their potency, because some cancer cells might not die quickly after suffering mitotic defects such as an arrest in mitosis or a cytokinetic failure. Instead, after exposed to antimitotic agents, cells might face multiple possibilities that adversely affect their viability and proliferation in long-term such as permanent arrest of proliferation due to the development of senescence and nonapoptotic cell death by excessive autophagy. Only a small fraction of cells pretreated with an antimitotic agent might resume proliferation and divide to generate viable daughter cells that form colonies. Assay of the ability of cells to form colonies after being exposed to an anticancer agent for a short period of time represents a more accurate approach to document the potency of antimitotic agents. The human lung cancer cell line NCI-H23 in sub-confluence was exposed to compounds #7, #36, and #39 for three days and then transferred to drug-free fresh medium once every 3 days until 12 days after the initiation of treatment. At the end point, cells were photographed after fixed and stained with crystal violet.

[2] = tested on: cervical cancer cell line Hela; assay: Soft agar colony formation assay; format: cell-based, human
Excerpt: Measuring the ability of cells to grow in soft agar has been popularly believed as the gold standard assay for cellular transformation in vitro. In the Soft Agar Assay, cells grow from single cells to cell colonies in a semi-solid agar solution that keeps them away from the solid surface and allows growth in an anchorage-independent way.
The anchorage-independent growth of cells is one of the hallmarks of cancer cells. Normal epithelial cells are supported by basement membranes that provide survival and proliferative signals while undergo a type of apoptosis called anoikis when lose their attachment to the extracellular matrix. Cancer cells, in contrast, evade detachment-induced apoptosis, leading to uncontrolled proliferation and metastasis. The Soft Agar Colony Formation Assay allows testing of the therapeutic efficacy of compounds against anchorage-independent 3D growth of cancer cells in vin. The assay was performed in 6-well plates with two layers of agar. For the first, 0.75% agar in DMEM medium was melted in a microwave oven and poured to form a bottom layer. Once solidified, 10-100K cells in 1 ml of DMEM containing 0.35% agar was added to form the top layer, which was later covered with 0.5 ml of DMEM. Cell culture medium was changed once every two days until colonies were ready to photograph. We test the antitumor activity of select compounds in soft agar colony formation assays. […] The suppression of growth of these three cancer cell lines in 3D culture is consistent with the potent impact of these compounds on cellular proliferation in 2D culture.

NCI-N87 = assay: MECP in cancer cell line; format: cell-based; settings: Homo sapiens
How it was run: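 DMEM, 5% FBS, 37 °C, 5% CO2; dose range 1 nM–30 μM; endpoints MI (24 h), polyploidy (48 h), 72 h DNA content by imaging; categorical A–D output.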

Row | Structure (SMILES) | EC50 (HCT116) | long-term proliferative potential of NCI-H23 cells (colony formation) [1] | anchorage-independent growth in soft agar [2] | minimal effective concentration (NCI-N87)
1 | COc1cc(OC)cc(Oc2ccnc3ccccc23)c1 [Compound 7, 4-(3,5-dimethoxyphenoxy)quinoline] | 1 to 1000 nM | Suppress the Long-Term Proliferative Potential; also recorded: inhibited the long-term proliferative potential | effectively suppressed the anchorage-independent growth | –
2 | COC(=O)c1cc(OC)cc(Oc2ncnc3cc(OC)c(OC)cc23)c1 [Compound 29] | 1000 to 10000 nM | – | – | 0.001 to 1 µM
3 | COC(=O)c1cc(OC)cc(Oc2ncnc3ccsc23)c1 [Compound 37, methyl 3-methoxy-5-(thieno[3,2-d]pyrimidin-4-yloxy)benzoate] | 1 to 1000 nM | – | – | 0.001 to 1 µM
4 | COC(=O)c1cc(Oc2ncnc3ccsc23)cc(C(=O)OC)c1 [Compound 39, dimethyl 5-(thieno[3,2-d]pyrimidin-4-yloxy)isophthalate] | 1 to 1000 nM | Suppress the Long-Term Proliferative Potential; also recorded: inhibited the long-term proliferative potential | effectively suppressed the anchorage-independent growth | 0.001 to 1 µM

Now from value to compound, other results behind:

Row | EC50 (HCT116) | Structure (SMILES) | long-term proliferative potential of NCI-H23 cells (colony formation) [1] | anchorage-independent growth in soft agar [2] | minimal effective concentration (NCI-N87)
5 | 1 to 1000 nM | COC(=O)c1cc(OC)cc(Oc2ncnc3cc[nH]c23)c1 [Compound 34, methyl 3-((5H-pyrrolo[3,2-d]pyrimidin-4-yl)oxy)-5-methoxybenzoate] | – | – | 0.001 to 1 µM
6 | 1 to 1000 nM | COC(=O)c1cc(Oc2ncnc3cc[nH]c23)cc(C(=O)OC)c1 [Compound 36, dimethyl 5-((5H-pyrrolo[3,2-d]pyrimidin-4-yl)oxy)isophthalate] | Suppress the Long-Term Proliferative Potential; also recorded: inhibited the long-term proliferative potential | effectively suppressed the anchorage-independent growth | 0.001 to 1 µM
